Results taken from DBAASP.
In brackets after ≈: the same amount, converted by molar mass. Several values for one entry are separate records, joined by “and”; a condition that tells them apart may be missing. Identical values can stand only once.

Columns and labels:
Experiment in all cases: ≥ marks a high value that may be exact or a test limit, other limits are often not marked, values filed in µg/mL are converted to µM
[1] = test system: Acinetobacter baumannii ATCC 19606
[2] = test system: Klebsiella aerogenes ATCC 13048
[3] = test system: Escherichia coli ATCC 8739
[4] = test system: Enterobacter cloacae ATCC 23355
[5] = test system: Klebsiella pneumoniae ATCC 700603
Pseudomonas aeruginosa = test system: Pseudomonas aeruginosa
[6] = test system: Pseudomonas aeruginosa 124
Staphylococcus aureus MR = test system: Staphylococcus aureus MR
[7] = test system: Staphylococcus aureus 936
[8] = test system: Pseudomonas aeruginosa PAO1
[9] = test system: Candida albicans ATCC 10231
Escherichia coli 850 = test system: Escherichia coli 850
[10] = test system: Pseudomonas aeruginosa 86
[11] = test system: Staphylococcus saprophyticus
[12] = test system: Staphylococcus aureus ATCC 6538
[13] = test system: Zymomonas mobilis ATCC 10988
Candida parapsilosis = test system: Candida parapsilosis
Escherichia coli ML-35 = test system: Escherichia coli ML-35
[14] = test system: Pseudomonas aeruginosa 119
[15] = test system: Enterococcus faecium ATCC 700221
[16] = test system: Bacillus subtilis CCT 2471
Bacillus subtilis DELTA = test system: Bacillus subtilis DELTA
[17] = test system: Escherichia coli CCT 1371
[18] = test system: Candida albicans ATCC 200955
Escherichia coli MG1655 = test system: Escherichia coli MG1655
[19] = test system: Escherichia coli DH5alpha
Bacillus thuringiensis = test system: Bacillus thuringiensis
[20] = test system: Staphylococcus aureus ATCC 33591
[21] = test system: Staphylococcus epidermidis ATCC 12228
Proteus mirabilis = test system: Proteus mirabilis
Escherichia coli DL7 = test system: Escherichia coli DL7
Acinetobacter baumannii = test system: Acinetobacter baumannii
Escherichia coli 780 = test system: Escherichia coli 780
Escherichia coli 804 = test system: Escherichia coli 804

SMILES: CC[C@H](C)[C@H](NC(=O)[C@H](CCCN=C(N)N)NC(=O)[C@H](CCCCN)NC(=O)[C@H](CC(C)C)NC(=O)[C@H](CC(C)C)NC(=O)CN)C(=O)N[C@@H](CCCCN)C(=O)N[C@H](C(=O)N[C@@H](CC(C)C)C(=O)N[C@@H](CC(C)C)C(N)=O)[C@@H](C)O [GLLKRIKTLL]
- MIC [1]: 64 µM (≈ 73.8 µg/mL)
- MIC [2]: ≥ 32 µM
- MIC [3]: ≥ 35.5 µM
- MIC [4]: ≥ 173 µM
- MIC [5]: 64 µM and 128 µM
- MIC (Pseudomonas aeruginosa): 11.3 µM (≈ 13.1 µg/mL)
- MIC [6]: ≥ 32 µM
- MIC (Staphylococcus aureus MR): ≥ 45.3 µM
- MIC [7]: ≥ 64 µM
- MIC [8]: 173 µM (≈ 200 µg/mL)
- MIC [9]: 16.9 µM (≈ 19.5 µg/mL)
- MIC (Escherichia coli 850): ≥ 32 µM
- MIC [10]: 4 µM (≈ 4.61 µg/mL)
- MIC [11]: 4.33 µM (≈ 5 µg/mL)
- MIC [12]: 43.3 µM and 65 µM
- MIC [13]: ≥ 173 µM
- MIC (Candida parapsilosis): ≥ 43.3 µM
- MIC (Escherichia coli ML-35): 8 µM (≈ 9.23 µg/mL)
- MIC [14]: 4 µM (≈ 4.61 µg/mL)
- MIC [15]: ≥ 133 µM
- MIC [16]: 17.3 µM (≈ 20 µg/mL)
- MIC (Bacillus subtilis DELTA): ≥ 173 µM
- MIC [17]: ≥ 86.6 µM
- MIC [18]: ≥ 171 µM
- MIC (Escherichia coli MG1655): ≥ 32 µM
- MIC [19]: ≥ 260 µM
- MIC (Bacillus thuringiensis): ≥ 173 µM
- MIC [20]: ≥ 512 µM
- MIC [21]: 8 µM (≈ 9.23 µg/mL)
- MIC (Proteus mirabilis): ≥ 173 µM
- MIC (Escherichia coli DL7): 16 µM (≈ 18.5 µg/mL)
- MIC (Acinetobacter baumannii): 16 µM (≈ 18.5 µg/mL)
- MIC (Escherichia coli 780): 16 µM (≈ 18.5 µg/mL)
- MIC (Escherichia coli 804): ≥ 32 µM
